Data reported in patent US20160045505A1, “COMPOUNDS AND COMPOSITIONS FOR THE TREATMENT OF PARASITIC DISEASES” (NOVARTIS AG, priority 2013, published 2016).

What was measured:
[1] = test system: Trypanosoma brucei Lister 427 strain, bloodstream form; experiment: Assay for proliferation of kinetoplastid parasite Trypanosoma brucei (Cell Titer Glo, 48 hours); type: cell-based; settings: Trypanosoma brucei, T. brucei Lister 427 bloodstream form; read-out: T. brucei EC50
How it was run: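 Bloodstream-form T. brucei Lister 427 in HMI-9 medium was exposed to compound (DMSO vehicle) for 48 hours at 37° C, 5% CO2. Parasite growth was read as ATP by CellTiter-Glo luminescence, with EC50 calculated from percent inhibition.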

[2] = test system: L. donovani HU3 strain in mouse peritoneal macrophages; experiment: Assay for proliferation of Leishmania parasites in infected mouse peritoneal macrophages (SybrGreen staining, high-content imaging, 5 days); type: cell-based, Leishmania donovani; settings: Leishmania donovani, Peritoneal macrophage, L. donovani in mouse peritoneal macrophages; read-out: L. donovani Macrophage EC50
[3] = test system: Trypanosoma cruzi amastigotes (Tulahuen strain expressing Lac-Z) cultured in 3T3 fibroblast cells; experiment: microbe, parasite or virus in culture; type: cell-based; settings: Trypanosoma cruzi, TULAHUEN, Fibroblast, T. cruzi amastigotes in 3T3 fibroblast cells; read-out: T cruzi EC50
[4] = test system: Leishmania donovani axenic amastigote parasites; experiment: Leishmania donovani axenic amastigote proliferation assay (Cell TiterGlo luminescence, 2 day incubation); type: cell-based; settings: Leishmania donovani, L. donovani axenic amastigotes; read-out: L. donovani amastigotes EC50
[5] = patients injected with Melarsoprol (Arsobal); cited from earlier work

Which results are given for `[2H]C([2H])([2H])N(C(=O)Nc1ccc(F)c(-c2cn3cc(C4CC4)cnc3n2)c1)C([2H])([2H])[2H]` [Compound 606]?
EC50 [1]: 267 nM; EC50 [2]: 3200 nM; EC50 [3]: 380 nM; EC50 [4]: 545 nM

With `COc1cnc2nc(-c3cc(NC(=O)c4oc(C)nc4C)ccc3F)cn2c1` [Compound 607] as the compound, how does the EC50 [1] read?
The EC50 was 1040 nM.

And the EC50 [2]?
The EC50 was 443 nM.

And the EC50 [3]?
Its EC50 is 437 nM.

And the EC50 [4]?
Its EC50 is 705 nM.

Which results are given for `Cc1nc(C)c(C(=O)Nc2ccc(F)c(-c3cn4cc(OC(C)C)cnc4n3)c2)o1` [Compound 608, N-(4-fluoro-3-(6-isopropoxyimidazo[1,2-a]pyrimidin-2-yl)phenyl)-2,4-dimethyloxazole-5-carboxamide]?
EC50 [1]: 159 nM; EC50 [2]: 456 nM; EC50 [3]: 132 nM; EC50 [4]: 127 nM

What does the source list for `COC(=O)COc1cnc2nc(-c3cc(NC(=O)c4oc(C)nc4C)ccc3F)cn2c1` [Compound 609]?
EC50 [1]: 1050 nM; EC50 [2]: 5970 nM; EC50 [3]: > 20000 nM; EC50 [4]: 835 nM

For `Cc1nc(C)c(C(=O)Nc2ccc(F)c(-c3cn4cc(OCC5CC5)cnc4n3)c2)o1` [Compound 610], which EC50 [1] is on record?
The EC50 was 150 nM.

What about the EC50 [2] of the same compound?
The EC50 was 269 nM.

What about the EC50 [3] of the same compound?
The EC50 was 109 nM.

And the EC50 [4]?
Its EC50 is 121 nM.

Which EC50 [1] does the source give for `Cc1nc(C)c(C(=O)Nc2ccc(F)c(-c3cn4cc(OCc5ccccn5)cnc4n3)c2)o1` [Compound 611] here?
Its EC50 is 611 nM.

What about the EC50 [2] of the same compound?
Its EC50 is 1550 nM.

What about the EC50 [3] of the same compound?
The EC50 was 1130 nM.

What about the EC50 [4] of the same compound?
Its EC50 is 645 nM.

With `Cc1nc(C)c(C(=O)N(c2ccc(F)c(-c3cn4cc(OC(C)C)cnc4n3)c2)C(C)C)o1` [Compound 612] as the compound, how does the EC50 [1] read?
Its EC50 is 12400 nM.

What about the EC50 [2] of the same compound?
Its EC50 is 1060 nM.

What about the EC50 [3] of the same compound?
The EC50 was 3810 nM.

And the EC50 [4]?
The EC50 was 9400 nM.

With `Nc1nc(N)nc(Nc2ccc([As]3SCC(CO)S3)cc2)n1` (stereo not drawn) [Melarsoprol] as the compound, how does the “patients who developed reactive encephalopathy (convulsions, progressive coma, or psychotic reactions)” value [5] read?
The value was 3-10 % of patients.

What about the “reactive encephalopathy cases that result in death” value [5] of the same compound?
Its value is 10-70 % of such cases.
